Data from patent US20240254118A1, “PRMT5 INHIBITORS AND USES THEREOF” (Gilead Sciences, Inc., priority 2022, published 2024).

Tests used:
[1] = tested on: HCT116 MTAP-deleted cells; test: Cell viability assay (CellTiter-Glo, 7 days), HCT116 MTAP-deleted; conditions: Homo sapiens, HCT-116, 168 h
Experimental: Control compounds were analyzed in parallel each time for quality control.
In Brief, on Day −1, a serial dilution of stock compounds in DMSO was performed using BioMek liquid handlers and dispensed using Echo acoustic dispenser into 384 well plates. Both tool compounds and sample compounds were spotted in the same plate for a dose response of PRMT5 inhibitors. Compound plates were stored as frozen until the cells were ready for seeding.
On Day 0, 100 HCT WT or HCT116 MTAP-deleted cells were seeded in compound-containing 384 well plates (50 μl per well) in RPMI 1640 media supplemented with 10% heat inactivated fetal bovine serum, Glutamax and penicillin streptomycin using EL460 liquid dispenser 5 μl cassette (BioTek, part no. 7170011). After equilibrating the plate in room temperature, the cells were incubated for 7 days inside the sealed incubator set at 37 °C with 90% humidity and 5% CO2.
On Day 7, the viability of cells was measured using a CTG assay kit (CellTitre-Glo; Promega cat no. G7573). Shortly, 40 μl per well of luminescent cell viability assay reagent were dispensed using EL460 liquid dispenser 5 μl cassette. CTG luminescence signal was measured using an EnVision plate reader (PerkinElmer) in accordance with manufacturer's instruction. The CC50 values for each compound after 7 days of treatment were calculated using 4 parameter non-linear logistical curve fit.

[2] = tested on: SDMA signal (PRMT5 inhibition) in HCT116 MTAP-deleted cells; test: Symmetric di-methyl arginine image-based high content screen assay (SDMA assay), HCT116 MTAP-deleted; type: cell-based; conditions: SDMA assay; for EC50: Homo sapiens, HCT-116, 72 h, 3 days of treatment, cell line not given, taken as HCT116 MTAP-deleted, read-out: EC50 (SDMA assay)
Procedure, shortened: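 HCT116 MTAP-deleted cells treated with compound until Day 3, then formalin-fixed, permeabilized and immunostained for SDMA, with DAPI nuclear counterstain. Imaged by high-content microscopy; SDMA read-out is mean Alexa 488 intensity per DAPI-defined cell, reflecting PRMT5 inhibition.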

[3] = taken as HCT116 WT versus MTAP-deleted

Question: `Cn1ncc2c(N)nc3ccc(C(=O)N(Cc4nc5cc(Cl)ccc5s4)N4CCCCC4=O)cc3c21` [Example 93, 4-amino-N-[(5-chloro-1,3-benzothiazol-2-yl)methyl]-1-methyl-N-(2-oxo-1-piperidyl)pyrazolo[4,3-c]quinoline-8-carboxamide] was tested. Which CC50 [1] did it give?
Answer: The CC50 was < 100 nM.

Question: And the EC50 [2]?
Answer: Its EC50 is < 1 nM.

Question: What about the “EC50 selectivity (SDMA assay)” value [2, 3] of the same molecule?
Answer: The value was 226.

Question: Which CC50 [1] does the source give for `Cn1ncc2c(N)nc3ccc(C(=O)N(Cc4cn5cc(F)ccc5n4)N4CCCCC4=O)cc3c21` [Example 90, 4-Amino-N-[(6-fluoroimidazo[1,2-a]pyridin-2-yl)methyl]-1-methyl-N-(2-oxo-1-piperidyl)pyrazolo[4,3-c]quinoline-8-carboxamide] here?
Answer: Its CC50 is < 100 nM.

Question: And the EC50 [2]?
Answer: The EC50 was 1 to 5 nM.

Question: And the “EC50 selectivity (SDMA assay)” value [2, 3]?
Answer: The value was 53.

Question: How did the CC50 [1] turn out when `CCN(C(=O)C1CC1)N(Cc1ccc(C(F)(F)F)cn1)C(=O)c1cc2c(cc1F)nc(N)c1cnn(C)c12` [Example 286, 4-amino-N′-(cyclopropanecarbonyl)-N′-ethyl-7-fluoro-1-methyl-N-((5-(trifluoromethyl)pyridin-2-yl)methyl)-1H-pyrazolo[4,3-c]quinoline-8-carbohydrazide] was run?
Answer: Its CC50 is < 100 nM.

Question: What about the EC50 [2] of the same molecule?
Answer: The EC50 was < 1 nM.

Question: And the “EC50 selectivity (SDMA assay)” value [2, 3]?
Answer: Its value is 16.

Question: How did the CC50 [1] turn out when `CC(=O)N(C)N(Cc1ccccc1F)C(=O)c1cc2c(cc1F)nc(N)c1cnn(C)c12` [Example 182, N′-acetyl-4-amino-7-fluoro-N-(2-fluorobenzyl)-N′,1-dimethyl-1H-pyrazolo[4,3-c]quinoline-8-carbohydrazide] was run?
Answer: Its CC50 is < 100 nM.

Question: What about the EC50 [2] of the same molecule?
Answer: The EC50 was < 1 nM.

Question: What about the “EC50 selectivity (SDMA assay)” value [2, 3] of the same molecule?
Answer: Its value is 209.

Question: What does the source list for `CN(C(=O)C1CC1)N(Cc1ccc(C(F)(F)F)nc1)C(=O)c1ccc2nc(N)c3cnn(C)c3c2c1` [Example 393, 4-amino-N′-(cyclopropanecarbonyl)-N′,1-dimethyl-N-[[6-(trifluoromethyl)-3-pyridyl]methyl]pyrazolo[4,3-c]quinoline-8-carbohydrazide]?
Answer: CC50 [1]: < 100 nM; EC50 [2]: 1 to 5 nM; EC50 selectivity (SDMA assay) [2, 3]: 380

Question: Which CC50 [1] does the source give for `Cc1cc(CN(C(=O)c2ccc3nc(N)c4cnn(C)c4c3c2)N(C)C(=O)C2CC2)c(F)cc1-c1cnn(C(F)F)c1` [Example 318, 4-amino-N′-(cyclopropanecarbonyl)-N-(4-(1-(difluoromethyl)-1H-pyrazol-4-yl)-2-fluoro-5-methylbenzyl)-N′,1-dimethyl-1H-pyrazolo[4,3-c]quinoline-8-carbohydrazide] here?
Answer: Its CC50 is < 100 nM.

Question: And the EC50 [2]?
Answer: The EC50 was < 1 nM.

Question: What about the “EC50 selectivity (SDMA assay)” value [2, 3] of the same molecule?
Answer: Its value is 130.

Question: What does the source list for `CC(=O)N(C)N(Cc1c(F)cc(C(F)(F)F)cc1F)C(=O)c1ccc2nc(N)c3cnn(C)c3c2c1` [Example 415, N′-acetyl-4-amino-N-(2,6-difluoro-4-(trifluoromethyl)benzyl)-N′,1-dimethyl-1H-pyrazolo[4,3-c]quinoline-8-carbohydrazide]?
Answer: CC50 [1]: < 100 nM; EC50 [2]: < 1 nM; EC50 selectivity (SDMA assay) ([2]; taken as HCT116 WT vs MTAP-deleted): 26

Question: `Cn1ncc2c(N)nc3ccc(C(=O)N(Cc4ccc(C(F)(F)F)cn4)N4CCCCC4)cc3c21` [Example 28, 4-amino-1-methyl-N-(1-piperidyl)-N-[[5-(trifluoromethyl)-2-pyridyl]methyl]pyrazolo[4,3-c]quinoline-8-carboxamide] was tested. Which CC50 [1] did it give?
Answer: Its CC50 is < 100 nM.

Question: And the EC50 [2]?
Answer: The EC50 was < 1 nM.

Question: And the “EC50 selectivity (SDMA assay)” value [2, 3]?
Answer: Its value is 134.

Question: For `COc1cc(C(F)(F)F)ccc1CN(C(=O)c1ccc2nc(N)c3cnn(C)c3c2c1)N1CCCCC1=O` [Example 67, 4-amino-N-[[2-methoxy-4-(trifluoromethyl)phenyl]methyl]-1-methyl-N-(2-oxo-1-piperidyl)pyrazolo[4,3-c]quinoline-8-carboxamide], which CC50 [1] is on record?
Answer: Its CC50 is < 100 nM.

Question: What about the EC50 [2] of the same molecule?
Answer: The EC50 was < 1 nM.

Question: What about the “EC50 selectivity (SDMA assay)” value [2, 3] of the same molecule?
Answer: Its value is 25.

Question: What does the source list for `Cn1ncc2c(N)nc3cc(F)c(C(=O)N(Cc4ccc(C(F)(F)F)cn4)NC(=O)C4(F)CC4)cc3c21` [Example 294, 4-amino-7-fluoro-N′-(1-fluorocyclopropane-1-carbonyl)-1-methyl-N-((5-(trifluoromethyl)pyridin-2-yl)methyl)-1H-pyrazolo[4,3-c]quinoline-8-carbohydrazide]?
Answer: CC50 [1]: < 100 nM; EC50 [2]: < 1 nM; EC50 selectivity (SDMA assay) [2, 3]: 97

Question: What does the source list for `COCC(=O)N(C)N(Cc1ccc(C(F)(F)F)cn1)C(=O)c1ccc2nc(N)c3cnn(C)c3c2c1` [Example 385, 4-amino-N′-(2-methoxyacetyl)-N′,1-dimethyl-N-[[5-(trifluoromethyl)-2-pyridyl]methyl]pyrazolo[4,3-c]quinoline-8-carbohydrazide]?
Answer: CC50 [1]: < 100 nM; EC50 [2]: 1 to 5 nM; EC50 selectivity (SDMA assay) [2, 3]: 52
